From article PMC12125794 (Annals of Clinical Microbiology and Antimicrobials, 2025)

Legend:
KPC-2 [1] = molecular target: T1, KPC-2 (Klebsiella pneumoniae, UniProt Q9F663); format: biochemical
KPC-2 [2] = molecular target: T1, KPC-2; format: biochemical; remark: listed apart in the source

T1 sequence (Q9F663 25-293 limits assumed): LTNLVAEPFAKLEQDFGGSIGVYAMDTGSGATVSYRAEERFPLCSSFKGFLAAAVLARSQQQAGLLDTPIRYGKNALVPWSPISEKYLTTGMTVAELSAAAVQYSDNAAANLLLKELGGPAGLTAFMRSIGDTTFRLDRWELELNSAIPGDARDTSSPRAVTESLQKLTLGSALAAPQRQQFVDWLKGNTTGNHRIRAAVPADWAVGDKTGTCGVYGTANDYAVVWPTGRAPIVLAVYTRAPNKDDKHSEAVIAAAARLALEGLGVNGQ

| SMILES | hydrolysis progress curves at 300 nm, 30 nM purified enzyme, 50 μM meropenem (KPC-2 [1]) | steady-state hydrolysis kinetics (Michaelis-Menten), purified enzyme (KPC-2 [2]) |
| --- | --- | --- |
| C[C@@H](O)[C@H]1C(=O)N2C(C(=O)O)=C(S[C@@H]3CN[C@H](C(=O)N(C)C)C3)[C@H](C)[C@H]12 [meropenem] | Compared with KPC-2, catalytic efficiencies of KPC-87 for nitrocefin and meropenem decreased sharply |  |
| O=C(Cc1cccs1)N[C@@H]1C(=O)N2C(C(=O)O)=C(/C=C/c3ccc([N+](=O)[O-])cc3[N+](=O)[O-])CS[C@H]12 [nitrocefin] |  | Compared with KPC-2, catalytic efficiencies of KPC-87 for nitrocefin and meropenem decreased sharply |
